Measured values: ChEMBL document CHEMBL3046027, “In vitro and in vivo antifungal activity of synthetic pure isothiocyanates against Sclerotinia sclerotiorum” (Pest Manag Sci, 2011)

Legend:
Sclerotinia sclerotiorum [1] = test: In vivo antifungal Sclerotinia sclerotiorum in Pepper (Capsicum annuum L. cv. Sera Demre) assessed as inhibition of mycelial growth in volatile phase at 134 umol/L measured after 10 to 14 weeks; format: functional
Sclerotinia sclerotiorum [2] = test: In vivo antifungal Sclerotinia sclerotiorum in Pepper (Capsicum annuum L. cv. Sera Demre) assessed as inhibition of mycelial growth in volatile phase at 67 umol/L measured after 10 to 14 weeks; format: functional
Sclerotinia sclerotiorum [3] = test: Antifungal activity against Sclerotinia sclerotiorum assessed as inhibition of mycelial growth in volatile phase at 670 umol/l measured at 20 degC after 5 days; format: functional; settings: 120 h, read-out: GI
Sclerotinia sclerotiorum [4] = test: Antifungal activity against Sclerotinia sclerotiorum assessed as inhibition of mycelial growth in volatile phase at 469 umol/l measured at 20 degC after 5 days; format: functional; settings: 120 h, read-out: GI
Sclerotinia sclerotiorum [5] = test: Antifungal activity against Sclerotinia sclerotiorum assessed as inhibition of mycelial growth in volatile phase at 335 umol/l measured at 20 degC after 5 days; format: functional; settings: 120 h, read-out: GI
Sclerotinia sclerotiorum [6] = test: Antifungal activity against Sclerotinia sclerotiorum assessed as inhibition of mycelial growth in volatile phase at 67 umol/l measured at 20 degC after 5 days; format: functional; settings: 120 h, read-out: GI
Sclerotinia sclerotiorum [7] = test: Antifungal activity against Sclerotinia sclerotiorum assessed as inhibition of mycelial growth in volatile phase at 34 umol/l measured at 20 degC after 5 days; format: functional; settings: 120 h, read-out: GI
Sclerotinia sclerotiorum [8] = test: Antifungal activity against Sclerotinia sclerotiorum assessed as inhibition of mycelial growth in contact phase at 670 umol/l measured at 20 degC after 5 days; format: functional; settings: 120 h, read-out: GI
Sclerotinia sclerotiorum [9] = test: Antifungal activity against Sclerotinia sclerotiorum assessed as inhibition of mycelial growth in contact phase at 1340 umol/l measured at 20 degC after 5 days; format: functional; settings: 120 h, read-out: GI
Sclerotinia sclerotiorum [10] = test: Antifungal activity against Sclerotinia sclerotiorum assessed as inhibition of mycelial growth in contact phase at 603 umol/l measured at 20 degC after 5 days; format: functional; settings: 120 h, read-out: GI
Sclerotinia sclerotiorum [11] = test: Antifungal activity against Sclerotinia sclerotiorum assessed as inhibition of mycelial growth in contact phase at 469 umol/l measured at 20 degC after 5 days; format: functional; settings: 120 h, read-out: GI
Sclerotinia sclerotiorum [12] = test: Antifungal activity against Sclerotinia sclerotiorum assessed as inhibition of mycelial growth in contact phase at 2011 umol/l measured at 20 degC after 5 days; format: functional; settings: 120 h, read-out: GI
Sclerotinia sclerotiorum [13] = test: Fungistatic activity in Sclerotinia sclerotiorum assessed as inhibition of carpogenic germination in volatile phase at 670 umol/l measured at 20 degC after 5 days relative to control; format: functional; settings: 120 h
Sclerotinia sclerotiorum [14] = test: Fungistatic activity in Sclerotinia sclerotiorum assessed as inhibition of carpogenic germination in volatile phase at 335 umol/l measured at 20 degC after 5 days relative to control; format: functional; settings: 120 h
Sclerotinia sclerotiorum [15] = test: Fungistatic activity in Sclerotinia sclerotiorum assessed as inhibition of carpogenic germination in volatile phase at 67 umol/l measured at 20 degC after 5 days relative to control; format: functional; settings: 120 h
Sclerotinia sclerotiorum [16] = test: Fungistatic activity in Sclerotinia sclerotiorum assessed as inhibition of carpogenic germination in volatile phase at 34 umol/l measured at 20 degC after 5 days relative to control; format: functional; settings: 120 h
Sclerotinia sclerotiorum [17] = test: Fungistatic activity in Sclerotinia sclerotiorum assessed as sclerotial viability measured at 20 degC after 5 days; format: functional, organism-based; settings: 120 h
Sclerotinia sclerotiorum [18] = test: Fungistatic activity in Sclerotinia sclerotiorum assessed as inhibition of mycelial growth in volatile phase measured at 20 degC after 5 days; format: functional, organism-based; settings: 120 h
Sclerotinia sclerotiorum [19] = test: Fungistatic activity in Sclerotinia sclerotiorum assessed as inhibition of mycelial growth in contact phase measured at 20 degC after 5 days; format: functional, organism-based; settings: 120 h
Sclerotinia sclerotiorum [20] = test: Fungitoxic activity in Sclerotinia sclerotiorum assessed as viability in volatile phase at 670 umol/l measured at 20 degC after 5 days relative to control; format: functional; settings: 120 h, read-out: GI
Sclerotinia sclerotiorum [21] = test: Fungistatic activity in Sclerotinia sclerotiorum assessed as viability in volatile phase at 335 umol/l measured at 20 degC after 5 days relative to control; format: functional; settings: 120 h, read-out: GI
Sclerotinia sclerotiorum [22] = test: Fungistatic activity in Sclerotinia sclerotiorum assessed as inhibition of mycelial growth in contact phase at 2011 umol/l measured at 20 degC after 5 days relative to control; format: functional; settings: 120 h, read-out: GI
Sclerotinia sclerotiorum [23] = test: Fungitoxic activity in Sclerotinia sclerotiorum assessed as inhibition of mycelial growth in volatile phase at 469 umol/l measured at 20 degC after 5 days relative to control; format: functional; settings: 120 h, read-out: GI
Sclerotinia sclerotiorum [24] = test: Antifungal activity against Sclerotinia sclerotiorum assessed as inhibition of germination in volatile phase at 670 umol/l measured at 20 degC after 5 days; format: functional; settings: 120 h
Sclerotinia sclerotiorum [25] = test: Antifungal activity against Sclerotinia sclerotiorum assessed as inhibition of germination in volatile phase at 335 umol/l measured at 20 degC after 5 days; format: functional; settings: 120 h
Sclerotinia sclerotiorum [26] = test: Antifungal activity against Sclerotinia sclerotiorum assessed as inhibition of germination in volatile phase at 201 umol/l measured at 20 degC after 5 days; format: functional; settings: 120 h
Sclerotinia sclerotiorum [27] = test: Antifungal activity against Sclerotinia sclerotiorum assessed as inhibition of germination in volatile phase at 67 umol/l measured at 20 degC after 5 days; format: functional; settings: 120 h
Sclerotinia sclerotiorum [28] = test: Antifungal activity against Sclerotinia sclerotiorum assessed as inhibition of germination in volatile phase at 34 umol/l measured at 20 degC after 5 days; format: functional; settings: 120 h

In the case of `S=C=NCCc1ccccc1` [PHENETHYLISOTHIOCYANATE], the inhibition in vivo at 134 µM (Sclerotinia sclerotiorum [1]) is reported as 76.7%, the inhibition in vivo at 67 µM (Sclerotinia sclerotiorum [2]) is reported as 70% and the inhibition of growth at 670 µM (Sclerotinia sclerotiorum [3]) is reported as 100%. The inhibition of growth at 469 µM (Sclerotinia sclerotiorum [4]) was 64%, the inhibition of growth at 335 µM (Sclerotinia sclerotiorum [5]) was 51.3% and the inhibition of growth at 67 µM (Sclerotinia sclerotiorum [6]) was 42.7%. It also gave an inhibition of growth at 34 µM (Sclerotinia sclerotiorum [7]) of 24.3%, an inhibition of growth at 670 µM (Sclerotinia sclerotiorum [8]) of 59.7% and an inhibition of growth at 1340 µM (Sclerotinia sclerotiorum [9]) of 92.5%. It also gave an inhibition of growth at 603 µM (Sclerotinia sclerotiorum [10]) of 24.3%, an inhibition of growth at 469 µM (Sclerotinia sclerotiorum [11]) of 5% and an inhibition of growth at 2011 µM (Sclerotinia sclerotiorum [12]) of 100%. The inhibition at 670 µM (Sclerotinia sclerotiorum [13]) was 82.5%, the inhibition at 335 µM (Sclerotinia sclerotiorum [14]) was 57.5% and the inhibition at 67 µM (Sclerotinia sclerotiorum [15]) was 55%. The inhibition at 34 µM (Sclerotinia sclerotiorum [16]) was 12.5%, the EC50 (Sclerotinia sclerotiorum [17]) was 114 µM and the EC50 (Sclerotinia sclerotiorum [18]) was 144 µM. For the same molecule, the EC50 (Sclerotinia sclerotiorum [19]) was 650 µM, the inhibition of growth at 670 µM (Sclerotinia sclerotiorum [20]) was 100% and the inhibition of growth at 335 µM (Sclerotinia sclerotiorum [21]) was 100%. The inhibition of growth at 2011 µM (Sclerotinia sclerotiorum [22]) was 100%, the inhibition of growth at 469 µM (Sclerotinia sclerotiorum [23]) was 100% and the inhibition at 670 µM (Sclerotinia sclerotiorum [24]) was 100%. It also gave an inhibition at 335 µM (Sclerotinia sclerotiorum [25]) of 100%, an inhibition at 201 µM (Sclerotinia sclerotiorum [26]) of 66.7% and an inhibition at 67 µM (Sclerotinia sclerotiorum [27]) of 26.7%. For the same molecule, the inhibition at 34 µM (Sclerotinia sclerotiorum [28]) was 6.7%.
